Source: US20260184726A1, “HETEROCYCLIC COMPOUNDS AS KINASE INHIBITORS, COMPOSITIONS, AND METHODS OF USE THEREOF” (JS INNOMED HOLDINGS LTD., priority 2022, published 2026)
Like-named read-outs stand apart in the source and are kept apart here.

Tests used:
human RET kinase = target: T1, human RET kinase (Homo sapiens, UniProt P07949); experiment: RET Kinase Assay (mobility shift assay, ATP at Km); assay type: biochemical; conditions: 23 μM ATP (Km), read-out: RET Enzymatic Activity
T1 construct: purchased Carna 08-159
Method: Compounds were tested by Mobility shift assay with ATP concentration at Km. The assay used human RET kinase (Carna 08-159). Test compounds were prepared and diluted in DMSO in 3-fold serial dilutions to 50× of the final testing concentrations. The compounds were then further diluted to 5× by the kinase reaction buffer (50 mM HEPES pH 7.5, 0.0015% Brij-35). The enzymatic reaction for compound testing was performed in a white 384-well polypropylene plate (Corning 3573) with a total reaction volume of 25 μl containing 7 nM RET, 3 μM peptide substrate FAM-P2 (GL Biochem 112394), and 23 μM ATP (Sigma A7699-1G). The assay started with loading RET diluted in kinase reaction buffer to wells, followed by addition of equal volume of 5× compounds for 15-min incubation at the room temperature for pre-treatment. The enzymatic reaction was initiated by addition of mixture of the substrate and ATP prepared in kinase reaction buffer. After incubation at 28° C. for one hour, 25 μl of stopper buffer (a mixture of 100 mM HEPES pH 7.5 buffer, 0.015% Brij-35, 50 mM EDTA and 0.2% of coating reagent 3 (Cliper Lifesciences)). After 30 minutes of incubation at room temperature, the plate was read in a Caliper. Percent of control was calculated as the percentage of compound-treated vs 2% DMSO vehicle-treated. The dose-response curves were generated and the IC50 values were calculated by nonlinear sigmoid curve fitting using XLFit.

human KDR kinase = target: T2, human KDR kinase (Homo sapiens, UniProt P35968); experiment: KDR Kinase Assay (mobility shift assay, ATP at Km); assay type: biochemical; conditions: 92 μM ATP (Km), read-out: KDR Enzymatic Activity
T2 construct: purchased Carna 08-191
Method: Compounds were tested by Mobility shift assay with ATP concentration at Km. The assay used human KDR kinase (Carna 08-191). Test compounds were prepared and diluted in DMSO in 3-fold serial dilutions to 50× of the final testing concentrations. The compounds were then further diluted to 5× by the kinase reaction buffer (50 mM HEPES pH 7.5, 0.0015% Brij-35). The enzymatic reaction for compound testing was performed in a white 384-well polypropylene plate (Corning 3573) with a total reaction volume of 25 μl containing 1.2 nM KDR, 3 μM peptide substrate FAM-P22 (GL Biochem 112393), and 92 μM ATP (Sigma A7699-1G). The assay started with loading RET diluted in kinase reaction buffer to wells, followed by addition of equal volume of 5× compounds for 15-min incubation at the room temperature for pre-treatment. The enzymatic reaction was initiated by addition of mixture of the substrate and ATP prepared in kinase reaction buffer. After incubation at 28° C. for one hour, 25 μl of stopper buffer (a mixture of 100 mM HEPES pH 7.5 buffer, 0.015% Brij-35, 50 mM EDTA and 0.2% of coating reagent 3 (Cliper Lifesciences)). After 30 minutes of incubation at room temperature, the plate was read in a Caliper. Percent of control was calculated as the percentage of compound-treated vs 2% DMSO vehicle-treated. The dose-response curves were generated and the IC50s were calculated by nonlinear sigmoid curve fitting using XLFit.

BAF3 cells = experiment: BAF3 Cell Proliferation Assay (CellTiter-Glo, without RET driven, IL-3); assay type: cell-based; conditions: Mus musculus; growth inhibition in BAF3 cells, 72 hours, with IL-3; read-out: BAF3 Cellular Activity
In short: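 BAF3 cells in RPMI-1640 with 10% FBS and 1 ng/ml IL-3, seeded 2,000/well and settled 24 h at 37 °C, then exposed to compound at final 10 μM down to 0.0015 μM (0.1% DMSO) for 72 h. Viability by CellTiter-Glo luminescence versus DMSO controls; IC50 from curve fit.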

BAF3-KIF5B-RET cells = target: T3, BAF3-KIF5B-RET cells (Homo sapiens, UniProt P07949); experiment: BAF3-KIF5B-RET Cell Proliferation Assay (CellTiter-Glo); assay type: cell-based; conditions: growth inhibition, 72 hours
T3 construct: fused on or other part: P33176 (Kinesin-1 heavy chain)
In short: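 Ba/F3 cells driven by KIF5B-RET (wild-type, V804M or G810R) or TEL-RET-M918T, 2,000 per well in RPMI/10% FBS, attached 24 h. Treated 72 h at 37° C with compound from 0.00015 to 1 μM final, 0.1% DMSO. CellTiter-Glo luminescence relative to DMSO wells gave IC50.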

[1] = target: T4, Ba/F3-KIF5B-RET-V804M cells (Homo sapiens, UniProt P07949, V804M, cells depend on it); experiment: Ba/F3-KIF5B-RET-V804M Cell Proliferation Assay (CellTiter-Glo); assay type: cell-based; conditions: growth inhibition, 72 hours; Table 3; read-out: BZ/F3-KIF5B-RET V804M
T4 construct: fused on or other part: P33176 (Kinesin-1 heavy chain)
Method: (§1) Compounds disclosed herein were tested for the inhibition of RET by a cancer cell proliferation assay commonly known as CellTiter-Glo assay. In this assay, a complete media was prepared by adding 10% fetal bovine serum to RPMI-1640 medium (Life technology) for RET-driven cancer cells (BAF3-FIF5B-RET, Ba/F3-KIF5B-RET-G810R, Ba/F3-TEL-RET-M918T or Ba/F3-KIF5B-RET-V804M). Individual RET-driven type of cells were added to each of 88 wells of a 96 well plate at a seeding density of 2,000 cells/well/95 μL. The cells were allowed to attach to the plate by incubating at 37° C. for 24 hours. The compound was dissolved in DMSO (SIGMA). A solution of test compound was prepared in complete media by serial dilution to obtain the following concentrations: 20 μM, 6.67 μM, 2.22 μM, 0.74 μM, 0.25 μM, 0.082 μM, 0.027 μM, 0.0091 μM and 0.0030 μM. The test compound solution (5 μL) was added to each of 80 cell-containing wells. The final concentrations of the compound were following: 1 μM, 0.33 μM, 0.11 μM, 0.037 μM, 0.012 μM, 0.0041 μM, 0.0014 μM, 0.00046 μM and 0.00015 μM. The final concentration of DMSO is 0.1%. To the 8 remaining cell-containing wells, only complete media (containing 0.1% DMSO) was added to form a control group in order to measure maximal proliferation. To the remaining 8 empty wells, complete media was added to for a vehicle control group in order to measure background. The plates were incubated at 37° C. for 72 hours. 50 μl of CellTiter-Glo® Reagent was added to each well. Mix contents for 2 minutes on an orbital shaker to induce cell lysis. Incubate at room temperature for 10 minutes to stabilize luminescent signal. Record luminescence on Paradigm. Cell viability (CV %) was calculated relative to vehicle (DMSO) treated control wells. The IC50 was calculated using GraphPad Prism.

[2] = target: T5, Ba/F3-KIF5B-RET-G810R cells (Homo sapiens, UniProt P07949, G810R, cells depend on it); experiment: Ba/F3-KIF5B-RET-G810R Cell Proliferation Assay (CellTiter-Glo); assay type: cell-based; conditions: growth inhibition, 72 hours; Table 3
T5 construct: fused on or other part: P33176 (Kinesin-1 heavy chain)
Method: as §1

[3] = target: BA/F3-KIF5B-RET M918T cells (Homo sapiens, UniProt P07949, M918T, cells depend on it, form not given); experiment: Ba/F3 RET-M918T Cell Proliferation Assay (CellTiter-Glo); assay type: cell-based; conditions: growth inhibition, 72 hours; Table 3
Method: as §1

T3 sequence (P07949 whole entry, change not shown, the tested form may be a part): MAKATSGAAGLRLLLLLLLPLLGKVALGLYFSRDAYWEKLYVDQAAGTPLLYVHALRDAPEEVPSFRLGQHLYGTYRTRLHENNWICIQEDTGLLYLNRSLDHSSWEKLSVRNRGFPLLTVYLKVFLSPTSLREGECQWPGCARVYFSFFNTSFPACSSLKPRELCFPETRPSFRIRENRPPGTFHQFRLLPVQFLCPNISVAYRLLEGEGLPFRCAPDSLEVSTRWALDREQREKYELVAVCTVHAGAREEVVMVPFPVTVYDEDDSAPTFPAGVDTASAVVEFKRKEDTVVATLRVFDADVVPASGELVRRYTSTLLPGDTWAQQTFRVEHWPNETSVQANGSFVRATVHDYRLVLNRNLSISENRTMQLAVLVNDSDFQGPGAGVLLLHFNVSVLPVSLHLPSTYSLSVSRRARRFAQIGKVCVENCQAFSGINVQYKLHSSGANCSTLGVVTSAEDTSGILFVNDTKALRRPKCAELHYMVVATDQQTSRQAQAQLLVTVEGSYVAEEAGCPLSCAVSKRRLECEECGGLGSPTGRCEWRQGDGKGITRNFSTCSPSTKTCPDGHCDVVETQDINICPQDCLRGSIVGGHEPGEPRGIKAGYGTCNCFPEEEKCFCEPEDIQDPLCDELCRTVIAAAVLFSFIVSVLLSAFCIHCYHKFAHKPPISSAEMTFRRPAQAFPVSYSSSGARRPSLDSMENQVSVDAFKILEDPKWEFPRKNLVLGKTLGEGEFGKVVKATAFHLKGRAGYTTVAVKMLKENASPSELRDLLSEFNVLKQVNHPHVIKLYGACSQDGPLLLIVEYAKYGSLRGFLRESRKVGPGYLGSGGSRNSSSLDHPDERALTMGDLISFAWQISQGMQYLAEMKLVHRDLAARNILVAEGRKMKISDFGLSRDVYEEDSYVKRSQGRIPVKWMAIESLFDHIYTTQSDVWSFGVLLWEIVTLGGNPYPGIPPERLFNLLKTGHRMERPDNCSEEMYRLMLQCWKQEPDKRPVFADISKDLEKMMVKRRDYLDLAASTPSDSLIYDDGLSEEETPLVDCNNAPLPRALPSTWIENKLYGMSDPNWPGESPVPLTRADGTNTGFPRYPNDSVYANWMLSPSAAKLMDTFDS
T2 sequence (P35968 20-1356): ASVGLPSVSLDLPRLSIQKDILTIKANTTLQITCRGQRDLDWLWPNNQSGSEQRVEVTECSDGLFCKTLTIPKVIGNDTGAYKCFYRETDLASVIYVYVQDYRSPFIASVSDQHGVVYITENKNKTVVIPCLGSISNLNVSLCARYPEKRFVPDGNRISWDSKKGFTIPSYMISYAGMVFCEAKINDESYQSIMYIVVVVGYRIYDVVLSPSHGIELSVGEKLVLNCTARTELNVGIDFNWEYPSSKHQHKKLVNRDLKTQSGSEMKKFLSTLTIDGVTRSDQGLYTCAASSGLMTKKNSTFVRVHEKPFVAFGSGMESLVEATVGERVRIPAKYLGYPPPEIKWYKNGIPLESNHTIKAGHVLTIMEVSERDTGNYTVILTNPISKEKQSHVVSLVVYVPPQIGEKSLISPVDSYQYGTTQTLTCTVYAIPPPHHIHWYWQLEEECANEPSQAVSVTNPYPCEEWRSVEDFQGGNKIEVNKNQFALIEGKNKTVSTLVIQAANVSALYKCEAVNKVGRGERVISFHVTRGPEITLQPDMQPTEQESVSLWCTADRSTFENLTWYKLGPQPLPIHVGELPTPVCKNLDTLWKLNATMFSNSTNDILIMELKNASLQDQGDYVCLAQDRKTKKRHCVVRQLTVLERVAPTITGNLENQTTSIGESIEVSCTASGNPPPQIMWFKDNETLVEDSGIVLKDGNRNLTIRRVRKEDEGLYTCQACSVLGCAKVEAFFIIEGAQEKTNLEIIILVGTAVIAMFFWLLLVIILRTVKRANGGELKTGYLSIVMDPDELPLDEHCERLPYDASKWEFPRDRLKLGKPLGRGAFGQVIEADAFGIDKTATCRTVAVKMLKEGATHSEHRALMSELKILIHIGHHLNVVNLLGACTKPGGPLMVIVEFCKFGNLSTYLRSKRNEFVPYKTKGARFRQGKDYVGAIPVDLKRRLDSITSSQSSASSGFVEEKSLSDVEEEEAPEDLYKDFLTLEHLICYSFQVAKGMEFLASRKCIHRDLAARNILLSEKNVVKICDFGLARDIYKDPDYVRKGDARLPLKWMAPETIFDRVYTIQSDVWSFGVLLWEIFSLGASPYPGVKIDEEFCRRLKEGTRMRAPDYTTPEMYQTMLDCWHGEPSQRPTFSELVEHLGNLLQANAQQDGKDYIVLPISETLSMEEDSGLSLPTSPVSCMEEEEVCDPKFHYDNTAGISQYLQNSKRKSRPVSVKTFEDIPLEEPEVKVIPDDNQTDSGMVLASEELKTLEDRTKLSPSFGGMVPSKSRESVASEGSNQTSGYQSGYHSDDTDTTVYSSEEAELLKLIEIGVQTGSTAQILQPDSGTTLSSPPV
Chain of BA/F3-KIF5B-RET M918T cells (P07949 whole entry M918T, form open): as the sequence (P07949 whole entry, change not shown, the tested form may be a part) above, with M918T counted along it
T4 sequence (P07949 whole entry V804M, the tested form may be a part): as the sequence (P07949 whole entry, change not shown, the tested form may be a part) above, with V804M counted along it
T5 sequence (P07949 whole entry G810R, the tested form may be a part): as the sequence (P07949 whole entry, change not shown, the tested form may be a part) above, with G810R counted along it
T1 sequence (P07949 29-1114): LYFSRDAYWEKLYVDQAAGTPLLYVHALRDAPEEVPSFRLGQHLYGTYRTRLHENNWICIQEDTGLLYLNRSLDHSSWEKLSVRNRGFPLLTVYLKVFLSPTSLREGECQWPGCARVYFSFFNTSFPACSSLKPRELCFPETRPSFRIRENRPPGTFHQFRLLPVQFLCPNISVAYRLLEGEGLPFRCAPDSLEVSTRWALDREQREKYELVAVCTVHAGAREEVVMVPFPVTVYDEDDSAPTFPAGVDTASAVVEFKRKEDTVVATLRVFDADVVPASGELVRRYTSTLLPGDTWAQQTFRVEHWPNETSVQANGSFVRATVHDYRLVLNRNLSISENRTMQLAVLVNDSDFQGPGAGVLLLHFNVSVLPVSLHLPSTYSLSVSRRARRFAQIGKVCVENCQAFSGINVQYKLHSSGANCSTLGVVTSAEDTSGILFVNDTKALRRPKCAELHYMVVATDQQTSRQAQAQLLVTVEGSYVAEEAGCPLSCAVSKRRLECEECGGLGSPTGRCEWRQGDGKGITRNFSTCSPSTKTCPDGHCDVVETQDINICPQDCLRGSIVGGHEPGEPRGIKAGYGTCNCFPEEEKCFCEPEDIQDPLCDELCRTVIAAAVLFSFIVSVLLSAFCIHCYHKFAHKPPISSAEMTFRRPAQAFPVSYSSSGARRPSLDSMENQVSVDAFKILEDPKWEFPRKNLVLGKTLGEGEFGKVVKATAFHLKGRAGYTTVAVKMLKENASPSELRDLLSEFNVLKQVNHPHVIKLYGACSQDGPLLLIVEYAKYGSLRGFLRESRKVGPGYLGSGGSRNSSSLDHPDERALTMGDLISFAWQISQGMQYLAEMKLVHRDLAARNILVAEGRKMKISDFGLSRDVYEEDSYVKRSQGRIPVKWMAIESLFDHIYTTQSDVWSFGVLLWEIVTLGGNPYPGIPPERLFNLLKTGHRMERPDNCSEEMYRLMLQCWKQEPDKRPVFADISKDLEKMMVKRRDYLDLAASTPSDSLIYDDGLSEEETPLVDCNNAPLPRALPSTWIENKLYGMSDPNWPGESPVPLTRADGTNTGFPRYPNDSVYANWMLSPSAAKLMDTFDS

With `CC(C)(O)c1ccc(-c2cc(-c3cnc(N4C5CC6CC4CC(NC(=O)c4ncccc4Cl)(C6)C5)cn3)c3c(C#N)cnn3c2)nc1` [Example 18, 3-chloro-N-((1R,3S,5s,7s)-2-(5-(3-cyano-6-(5-(2-hydroxypropan-2-yl)pyridin-2-yl)pyrazolo[1,5-a]pyridin-4-yl)pyrazin-2-yl)-2-azaadamantan-5-yl)picolinamide] the IC50 (human RET kinase) was 0.0014 µM, the IC50 (human KDR kinase) was 0.021 µM and the IC50 (BAF3 cells) was 1.17 µM. It also gave a GI50 (BAF3-KIF5B-RET cells; Table 2, read-out: BA/F3-KIF5B-RET Cellular activity) of 0.0007 µM, a GI50 (BAF3-KIF5B-RET cells; Table 3, read-out: BA/F3-KIF5B-RET) of 0.0007 µM and a GI50 [1] of 0.0039 µM. For the same compound, the GI50 [2] was 0.0594 µM and the GI50 [3] was 0.0184 µM.
